Columns and labels:
[1] = system: STAT5 transcription (pSPI-GLE1-luc) in HEK-GHR cells; test: HEK-GHR STAT5 transcription assay (luciferase reporter, rhGH stimulated); type: cell-based, human; conditions: Homo sapiens, compound 45 minutes before 50 nM rhGH, six hours, read-out: Activity (IC50, reduction of luciferase activity)
Description: Plasmids: The full-length GHR was subcloned into pcDNA1/ampicillin (Invitrogen) as described previously (Ross R J, Esposito N, Shen X Y, et al., Mol Endocrinol 1997, 11:265-73). The pSPI-GLE1 (serine protease inhibitor 2.1 GAS-like element 1)-luc reporter construct was generated by subcloning the Stat5-binding element from serine protease inhibitor gene together with a minimal thymidine kinase promoter into the pGL2 plasmid (Promega), which contains the firefly luciferase cDNA (Wood T J, Sliva D, Lobie P E, et al. J Biol Chem 1995, 270:9448-53).
Cell culture: HEK-GHR cell line was maintained in Dulbecco's Modified Eagle Medium (DMEM)/F12 supplemented with 10% fetal bovine serum (FBS) and 50 U/ml penicillin/50 U/ml streptomycin. The cells were maintained in a humidified incubator with 5% CO2 at 37° C. Cell culture reagents were obtained from PAA laboratories. The HEK-GHR cell line is a stable clone generated and kindly donated by Prof. Richard Ross (Clinical Sciences, Northern General Hospital, Sheffield, UK). Briefly, HEK-GHR cell line was generated in HEK 293 cells (human kidney embryonal cell line) by transfection with the calcium phosphate procedure of the GHR plasmid with pcDNA3/Neo (Invitrogen). Selection was made using G418 (400 ug/ml, Sigma) (Maamra M, Finidori J, Von Laue S, et al., J Biol Chem 1999, 274(21):14791-8).
Luciferase reporter assay: Transcription assays were performed in HEK-GHR. The HEK-GHR cells were co-transfected with Stat5 luciferase (pSPI-GLE1-luc) reporter vector together with a plasmid constitutively expressing beta-galactosidase by using Metafectene Pro as described by the manufacturer (Biontex Laboratories GmbH, Munich, Germany). Following transfection, HEK-GHR cells were serum-starved for 20 h. Cells were then treated with vehicle (0.1% DMSO) or the indicated compound for 45 minutes prior to the addition of 50 nM recombinant human Growth Hormone (rhGH) (Norditropin, Novo Nordisk) to the medium. Six hours following rhGH addition, cells were harvested with Passive Lysis Buffer (Promega), and levels of luciferase were measured using Luciferase Assay System as described by the manufacturer (Promega). The Galacto-Light Plus System (Applied Biosystems) was used to measure beta-galactosidase activity.
Statistical analysis. The concentration of drug that provokes 50% reduction of luciferase activity (IC50) was determined by using non-linear regression analysis and data were fitted to a log concentration vs normalized response curve in GraphPad software v5 (San Diego, Calif.).

HEL cells = test: Induction of apoptosis in HEL cells (annexin-V-FITC/propidium iodide flow cytometry); type: cell-based, human; conditions: 24 or 48 hours
Protocol: FIG. 3. • Analysis of phosphatidylserine externalization in human erythroleukemia cells (HEL) treated with compound 4 or the reported JAK-STAT inhibitor WP 1066. A) At different concentrations for 24 hours. B) Representation of the data obtained after treatment of cells with 5 μM of compound 4 for 48 hours compared to vehicle. (C) Data obtained after treatment of the cells with a concentration of 5 μM of compound 4 for 24 or 48 hours. Data are representative of three experiments. * Signifies a P<0.01 difference from control. ^0 Signifies a P<0.001 difference from control.
Human erythroleukemia (HEL) cells, at a density of 1.5×10^5 cells/ml, were treated with compound 4 at the indicated concentrations for 24 or 48 hours. The cells were incubated with propidium iodide and annexin-V-FITC and the quantity of phosphatidylserine externalized was determined using flow cytometry.

N#Cc1ccc(C2C3=C(CCCC3=O)OC3=C2C(=O)c2ccccc2C3=O)cc1 (centres unmarked) [Compound 4, 4-(1,6,11-trioxo-2,3,4,6,11,12-hexahydro-1H-benzo[b]xanthen-12-yl)benzonitrile]
IC50 [1]: < 1 µM | apoptosis of HEL cells (phosphatidylserine externalization) (HEL cells): induced, in a dose and time dependent manner, apoptosis

Source: patent US20150175585A1, “FUSED QUINONIC COMPOUNDS” (CENTRO ATLANTICO DEL MEDICAMENTO S.A (CEAMED, S.A.), priority 2012, published 2015)
